Experimental data taken from US5859012A, “Inhibitors of farnesyl-protein transferase” (Merck & Co., Inc., priority 1997, dated 1999).
Where a name gives a salt, the structure may show the parent alone.

Molecular target: T1, human FPTase (Homo sapiens, UniProt P49354+P49356)
T1 construct: made in house
Test: In vitro inhibition of ras farnesyl transferase (human FPTase assay, [3H]-FPP incorporation into Ras-CVIM)
Format: biochemical
Conditions: 100 nM Ras-CVIM, 30 min, read-out: IC50, inhibitory activity against human FPTase

Row | IC50 [µM] | SMILES
1 | ≤ 10 | N#Cc1ccc(Cn2cncc2CN2CCN(c3cccc(Cl)c3)C(=O)C2=O)cc1 [Example 1, 4-[1-(4-Cyanobenzyl)-5-imidazolylmethyl]-1-(3-chlorophenyl)-piperazine-2,3-dione hydrochloride]
2 | ≤ 10 | CCCC[C@H]1CN(c2cccc(C)c2C)C(=O)C(=O)N1Cc1cncn1Cc1ccc(C#N)cc1 [Example 2, (S)-5-n-butyl-4-[1-(4-cyanobenzyl)-5-imidazolylmethyl]-1-(2,3-dimethylphenyl)-2,3-piperazinedione hydrochloride]
